Results on 20 compounds are retold here after US7618960B2, “Morpholine type cinnamide compound” (Eisai R&D Management Co., Ltd., priority 2005, dated 2009).

In general, IC50 refers to the concentration that gives 50% inhibition.

The subject of this assay is Aβ42 production. As to the kind of experiment: Quantification of Aβ peptide in culture of neurons from rat fetus brain (Aβ ELISA). The assay is classed as cell-based. The following applies: Neuron, 72 h; rat primary neuronal culture (cerebral cortex, embryonic day 18 Wistar rats); medium collected three days after addition of compound; Aβx-42 ELISA; read-out: Activity for reducing Aβ42 production IC50. The method, then:
Quantification of Aβ Peptide in Culture of Neurons from Rat Fetus Brain
(1) Rat Primary Neuronal Culture
Primary neuronal cultures were prepared from the cerebral cortex of embryonic day 18 Wistar rats (Charles River Japan, Yokohama, Japan). Specifically, the embryos were aseptically removed from pregnant rats under ether anesthesia. The brain was isolated from the embryo and immersed in an ice-cold L-15 medium (Invitrogen Corp. Cat #11415-064, Carlsbad, Calif., USA, or SIGMA L1518, for example). The cerebral cortex was collected from the isolated brain under a stereoscopic microscope. The cerebral cortex fragments collected were enzymatically treated in an enzyme solution containing 0.25% trypsin (Invitrogen Corp. Cat #15050-065, Carlsbad, Calif., USA) and 0.01% DNase (Sigma D5025, St. Louis, Mo., USA) at 37° C. for 30 minutes to disperse the cells. Here, the enzymatic reaction was stopped by adding inactivated horse serum to the solution. The enzymatically treated solution was centrifuged at 1,500 rpm for five minutes to remove the supernatant. 5 to 10 ml of a medium was added to the resulting cell mass. Neurobasal medium (Invitrogen Corp. Cat #21103-049, Carlsbad, Calif., USA) supplemented with 2% B27 supplement (Invitrogen Corp. Cat #17504-044, Carlsbad, Calif., USA), 25 μM 2-mercaptoethanol (2-ME, WAKO Cat #139-06861, Osaka, Japan), 0.5 mM L-glutamine (Invitrogen Corp. Cat #25030-081, Carlsbad, Calif., USA), and Antibiotics-Antimycotics (Invitrogen Corp. Cat #15240-062, Carlsbad, Calif., USA) was used as the medium (Neurobasal/B27/2-ME). However, the above Neurobasal medium not supplemented with 2-ME (Neurobasal/B27) was used for the assay. The cells were redispersed by mild pipetting of the cell mass to which the medium was added. The cell dispersion was filtered through a 40-μm nylon mesh (Cell Strainer, Cat #35-2340, Becton Dickinson Labware, Franklin Lakes, N.J., USA) to remove the remaining cell mass, and thus a neuronal cell suspension was obtained. The neuronal cell suspension was diluted with the medium and then plated in a volume of 100 μl/well at an initial cell density of 5×10^5 cells/cm^2 in a 96-well polystyrene culture plate pre-coated with poly-L or D-lysine (Falcon Cat #35-3075, Becton Dickinson Labware, Franklin Lakes, N.J., USA coated with poly-L-lysine using the method shown below, or BIOCOAT™ cell environments Poly-D-lysine cell ware 96-well plate, Cat #35-6461, Becton Dickinson Labware, Franklin Lakes, N.J., USA). Poly-L-lysine coating was carried out as follows. 100 μg/ml of a poly-L-lysine (SIGMA P2636, St. Louis, Mo., USA) solution was aseptically prepared with a 0.15 M borate buffer (pH 8.5). 100 μl/well of the solution was added to the 96-well polystyrene culture plate and incubated at room temperature for one or more hours or at 4° C. overnight or longer. The coated 96-well polystyrene culture plate was washed with sterile water four or more times, and then dried or rinsed with, for example, sterile PBS or medium, and used for cell plating. The plated cells were cultured in the culture plate at 37° C. in 5% […]-95% air for one day. Then, the total amount of the medium was replaced with a fresh Neurobasal™/B27/2-ME medium, and then the cells were cultured for further three days.
The drug was added to the culture plate on Day 4 of culture as follows. The total amount of the medium was removed from the wells, and 180 μl/well of Neurobasal medium not containing 2-ME and containing 2% B-27 (Neurobasal/B27) was added thereto. A solution of the test compound in dimethyl sulfoxide (hereinafter abbreviated as DMSO) was diluted with Neurobasal/B27 so that the initial concentration was at 10-fold of the final concentration. 20 μl/well of the dilution was added to and sufficiently mixed with the medium. The final DMSO concentration was 1% or less. Only DMSO was added to the control group.
The cells were cultured for three days after addition of the compound, and the total amount of the medium was collected. […]
(ELISA stands for enzyme-linked immunosorbent assay.)
With `COc1cc(/C=C2\O[C@@H](C)CN([C@H](C)c3ccc(F)nc3F)C2=O)ccc1-n1cnc(C)c1` [Example 23, (Z)-(S)-4-[(R)-1-(2,6-difluoropyridin-3-yl)ethyl]-2-[1-[3-methoxy-4-(4-methyl-1H-imidazol-1-yl)phenyl]methylidene]-6-methylmorpholin-3-one], the IC50 amounted to 130 nM.

Regarding `COc1cc(/C=C2\OC(C)(C)CN([C@@H](C)c3ccnc(Cl)c3)C2=O)ccc1-n1cnc(C)c1` [Example 54, (Z)-4-[(S)-1-(2-chloropyridin-4-yl)ethyl]-2-[1-[3-methoxy-4-(4-methyl-1H-imidazol-1-yl)phenyl]methylidene]-6,6-dimethylmorpholin-3-one], the IC50 is 74 nM.

In the case of `COc1cc(/C=C2\O[C@@H](C)CN(C(C)(C)c3ccc(F)cc3)C2=O)ccc1-n1cnc(C)c1` [Example 38, (Z)-(6S)-4-[1-(4-fluorophenyl)-1-methylethyl]-2-[1-[3-methoxy-4-(4-methyl-1H-imidazol-1-yl)phenyl]methylidene]-6-methylmorpholin-3-one], the IC50 came out at 52 nM.

For the compound `COc1cc(/C=C2\O[C@@H](C)CN(C3(c4ccc(F)cc4)CC3)C2=O)ccc1-n1cnc(C)c1` [Example 39, (Z)-(6S)-4-[1-(4-fluorophenyl)cyclopropyl]-2-[1-[3-methoxy-4-(4-methyl-1H-imidazol-1-yl)phenyl]methylidene]-6-methylmorpholin-3-one], the IC50 is 130 nM.

For `COc1cc(/C=C2\OCCN([C@H](c3ccc(F)c(F)c3)[C@@H](C)O)C2=O)ccc1-n1cnc(C)c1` [Example 31, (Z)-4-[(1R,2R)-1-(3,4-difluorophenyl)-2-hydroxypropyl]-2-[1-[3-methoxy-4-(4-methyl-1H-imidazol-1-yl)phenyl]methylidene]morpholin-3-one], the 50% inhibitory concentration (IC50) amounted to 31 nM.

Take `COc1cc(/C=C2\O[C@@H](C)CN([C@](C)(CO)c3cc(F)c(F)c(F)c3)C2=O)ccc1-n1cnc(C)c1` [Example 36, (Z)-(S)-4-[(S)-2-hydroxy-1-methyl-1-(3,4,5-trifluorophenyl)ethyl]-2-[1-[3-methoxy-4-(4-methyl-1H-imidazol-1-yl)phenyl]methylidene]-6-methylmorpholin-3-one]: the IC50 was determined as 109 nM.

As for `COc1cc(/C=C2\OC(C)(C)CN([C@H](c3ccc(F)cc3)[C@@H](C)O)C2=O)ccc1-n1cnc(C)c1` [Example 33, (Z)-4-[(1R,2R)-1-(4-fluorophenyl)-2-hydroxypropyl]-2-[1-[3-methoxy-4-(4-methyl-1H-imidazol-1-yl)phenyl]methylidene]-6,6-dimethylmorpholin-3-one], the IC50 is 63 nM.

For `Cc1cn(-c2ccc(/C=C3\O[C@@H](C)CN([C@H](c4ccc(F)c(F)c4)[C@@H](C)O)C3=O)cc2F)cn1` [Example 75, (Z)-(S)-4-[(1R,2R)-1-(3,4-difluorophenyl)-2-hydroxypropyl]-2-[1-[3-fluoro-4-(4-methyl-1H-imidazol-1-yl)phenyl]methylidene]-6-methylmorpholin-3-one], the IC50 worked out at 146 nM.

Consider `COc1cc(/C=C2\OC[C@H]3COC[C@@H](c4ccc(F)c(F)c4)N3C2=O)ccc1-n1cnc(C)c1` [Example 109, (6R,9aR)-6-(3,4-difluorophenyl)-3-{1-[3-methoxy-4-(4-methyl-1H-imidazol-1-yl)phenyl]-(Z)-methylidene}tetrahydro[1,4]oxazino[3,4-c][1,4]oxazin-4-one], for which the IC50 is 100 nM.

On to `COc1cc(/C=C2\OC[C@H]3CCC[C@@H](c4ccc(Cl)cc4)N3C2=O)ccc1-n1cnc(C)c1` [Example 107, (6S,9aR)-6-(4-chlorophenyl)-3-{1-[3-methoxy-4-(4-methyl-1H-imidazol-1-yl)phenyl]-(Z)-methylidene}hexahydropyrido[2,1-c][1,4]oxazin-4-one], for which the IC50 is 78 nM.

As for `COc1cc(/C=C2\OC(C)(C)CN([C@@H](CO)c3ccc(F)cc3)C2=O)ccc1-n1cnc(C)c1` [Example 28, (Z)-4-[(R)-1-(4-fluorophenyl)-2-hydroxyethyl]-2-[1-[3-methoxy-4-(4-methyl-1H-imidazol-1-yl)phenyl]methylidene]-6,6-dimethylmorpholin-3-one], the IC50 was 16 nM.

On to `COc1cc(/C=C2\O[C@@H](C)CN([C@@H](C)c3cc(F)nc(F)c3)C2=O)ccc1-n1cnc(C)c1` [Example 53, (Z)-(S)-4-[(S)-1-(2,6-difluoropyridin-4-yl)ethyl]-2-[1-[3-methoxy-4-(4-methyl-1H-imidazol-1-yl)phenyl]methylidene]-6-methylmorpholin-3-one], for which the IC50 was found to be 40 nM.

As to `COc1cc(/C=C2\O[C@@H](C)CN([C@H](c3cc(F)c(F)c(F)c3)[C@@H](C)O)C2=O)ccc1-n1cnc(C)c1` [Example 26, (Z)-(S)-4-[(1R,2R)-2-hydroxy-1-(3,4,5-trifluorophenyl)propyl]-2-[1-[3-methoxy-4-(4-methyl-1H-imidazol-1-yl)phenyl]methylidene]-6-methylmorpholin-3-one], the IC50 amounted to 6 nM.

Regarding `COc1cc(/C=C2\O[C@@H](C)CN([C@@H](C)c3ccc(F)cc3)C2=O)ccc1-n1cnc(C)c1` [Example 9, (Z)-(S)-4-[(S)-1-(4-fluorophenyl)ethyl]-2-[1-[3-methoxy-4-(4-methyl-1H-imidazol-1-yl)phenyl]methylidene]-6-methylmorpholin-3-one], the half-maximal inhibitory concentration (IC50) came to 60 nM.

On to `COc1cc(/C=C2\OC(C)(C)CN([C@H](c3cc(F)c(F)c(F)c3)[C@@H](C)O)C2=O)ccc1-n1cnc(C)c1` [Example 27, (Z)-4-[(1R,2R)-2-hydroxy-1-(3,4,5-trifluorophenyl)propyl]-2-[1-[3-methoxy-4-(4-methyl-1H-imidazol-1-yl)phenyl]methylidene]-6,6-dimethylmorpholin-3-one], for which the half-inhibitory concentration (IC50) worked out at 5 nM.

Consider `COc1cc(/C=C2\OCCN([C@@H](C)c3cc(F)c(F)c(F)c3)C2=O)ccc1-n1cnc(C)c1` [Example 10, (Z)-2-[1-[3-methoxy-4-(4-methyl-1H-imidazol-1-yl)phenyl]methylidene]-4-[(S)-1-(3,4,5-trifluorophenyl)ethyl]morpholin-3-one], for which the 50% inhibitory concentration (IC50) worked out at 84 nM.

Consider `COc1cc(/C=C2\OC[C@H]3CCC[C@@H](c4ccc(F)c(F)c4)N3C2=O)ccc1-n1cnc(C)c1` [Example 41], for which the concentration for half-maximal inhibition (IC50) stood at 141 nM.

Regarding `COc1cc(/C=C2\O[C@@H](C)CN(Cc3cc(F)c(F)c(F)c3)C2=O)ccc1-n1cnc(C)c1` [Example 3, (Z)-(S)-2-[1-[3-methoxy-4-(4-methyl-1H-imidazol-1-yl)phenyl]methylidene]-6-methyl-4-(3,4,5-trifluorobenzyl)morpholin-3-one], the concentration for half-maximal inhibition (IC50) worked out at 41 nM.

`COc1cc(/C=C2\OC(C)(C)CN([C@@H](C)c3ccc(Cl)cn3)C2=O)ccc1-n1cnc(C)c1` [Example 60, (Z)-4-[(S)-1-(5-chloropyridin-2-yl)ethyl]-2-[1-[3-methoxy-4-(4-methyl-1H-imidazol-1-yl)phenyl]methylidene]-6,6-dimethylmorpholin-3-one]: the IC50 worked out at 96 nM.

For the compound `COc1cc(/C=C2\O[C@H](C)CN([C@@H](C)c3ccc(F)cc3)C2=O)ccc1-n1cnc(C)c1` [Example 8, (Z)-(R)-4-[(S)-1-(4-fluorophenyl)ethyl]-2-[1-[3-methoxy-4-(4-methyl-1H-imidazol-1-yl)phenyl]methylidene]-6-methylmorpholin-3-one], the IC50 was found to be 113 nM.
